According to US12485134B2, “Use of nicotinamide riboside, nicotinic acid riboside, reduced nicotinyl riboside compounds, and nicotinyl riboside compound derivatives in formulations” (ChromaDex Inc., priority 2019, dated 2025):

Assays:
Albumin = Albumin (Bos taurus, UniProt P02769); test: NR-Cl binding to individual whey proteins (cutoff filter method); conditions: 1 mmol/L each of protein and NR-Cl
Method: (§1) A. Solutions of hydrolyzed whey protein isolate (>90% protein, 2-7% degree of hydrolysis) were prepared at varying concentrations and filtered through 0.2 μm sterile filters. An aliquot of sterile nicotinamide riboside chloride (“NR-Cl,” a salt of NR, I) in water solution was spiked into the sterile whey solutions, targeting a final NR-Cl concentration of 1 mmol per liter (0.3 mg/mL). The solutions containing the mixture of hydrolyzed whey and NR-Cl were filtered through 10 kDa molecular weight cutoff centrifuge filters to remove the whey proteins (14-80 kDa) and any NR-Cl that was bound to the proteins. Any NR-Cl that was not bound to the whey proteins was recovered in the filtrate and quantitated by HPLC.
(§2) The solutions were prepared with 1 mmol/L each of protein and NR-Cl. NR-Cl binding to one or more of these individual proteins could be responsible for the enhanced stability of NR-Cl seen in hydrolyzed whey protein isolate.

Alpha-lactalbumin = biological target: T1, Alpha-lactalbumin (Bos taurus, UniProt P00711); test: as above; conditions: 1 mmol/L each of protein and NR-Cl
T1 sequence (P00711 20-142): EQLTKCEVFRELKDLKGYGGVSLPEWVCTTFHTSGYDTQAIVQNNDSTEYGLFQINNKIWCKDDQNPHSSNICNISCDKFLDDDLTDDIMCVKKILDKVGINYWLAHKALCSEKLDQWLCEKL
Method: as §1, §2

Albumin, sequence (P02769 25-607): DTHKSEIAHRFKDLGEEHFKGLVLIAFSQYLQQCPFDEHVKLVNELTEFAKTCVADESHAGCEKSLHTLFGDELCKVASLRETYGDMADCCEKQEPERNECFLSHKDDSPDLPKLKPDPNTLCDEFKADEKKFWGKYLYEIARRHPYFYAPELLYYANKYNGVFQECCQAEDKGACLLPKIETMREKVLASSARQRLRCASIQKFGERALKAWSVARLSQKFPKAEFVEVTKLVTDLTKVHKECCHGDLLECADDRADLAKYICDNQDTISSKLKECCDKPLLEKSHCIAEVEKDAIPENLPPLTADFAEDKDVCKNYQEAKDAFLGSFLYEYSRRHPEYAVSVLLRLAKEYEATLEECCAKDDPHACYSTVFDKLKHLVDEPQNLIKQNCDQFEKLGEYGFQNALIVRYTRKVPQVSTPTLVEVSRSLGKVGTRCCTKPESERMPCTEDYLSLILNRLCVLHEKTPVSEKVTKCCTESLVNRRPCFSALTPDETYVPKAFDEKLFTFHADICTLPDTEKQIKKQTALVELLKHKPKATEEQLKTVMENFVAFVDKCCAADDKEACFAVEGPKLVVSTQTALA

## NC(=O)c1ccc[n+]([C@@H]2O[C@H](CO)[C@@H](O)[C@H]2O)c1.[Cl-] [NR-Cl, nicotinamide riboside chloride]
Albumin
  % NR-Cl Bound to Protein: 47%
Alpha-lactalbumin
  % NR-Cl Bound to Protein: 62%
